Reference: US20040214760A1, “Inhibition pf protein-phosphatases for the treatment of heart failure” (priority 2001, published 2004)

What was measured:
PP1 = settings: heat and acid stable proteins of skeletal muscle extract (Cohen et al., 1998); cited from earlier work
[1] = biological target: 32P-labelled phosphorylase a

Row | Substance | inhibition of phosphatase (PP1) activity, dependence on phosphorylation state (PP1) | 32P released from 32P-labelled phosphorylase a [1] [%]
1 | inhibitor-1 | inhibits phosphatase activity only when it has been phosphorylated by cAMP-dependent protein kinase | 
2 | purified catalytic subunit of PP1 from rabbit skeletal muscle (enzyme) |  | 30
